Test [1] has as its target T1, Serine/threonine-protein kinase Chk1 (Homo sapiens) (UniProt O14757).
T1 sequence (whole entry): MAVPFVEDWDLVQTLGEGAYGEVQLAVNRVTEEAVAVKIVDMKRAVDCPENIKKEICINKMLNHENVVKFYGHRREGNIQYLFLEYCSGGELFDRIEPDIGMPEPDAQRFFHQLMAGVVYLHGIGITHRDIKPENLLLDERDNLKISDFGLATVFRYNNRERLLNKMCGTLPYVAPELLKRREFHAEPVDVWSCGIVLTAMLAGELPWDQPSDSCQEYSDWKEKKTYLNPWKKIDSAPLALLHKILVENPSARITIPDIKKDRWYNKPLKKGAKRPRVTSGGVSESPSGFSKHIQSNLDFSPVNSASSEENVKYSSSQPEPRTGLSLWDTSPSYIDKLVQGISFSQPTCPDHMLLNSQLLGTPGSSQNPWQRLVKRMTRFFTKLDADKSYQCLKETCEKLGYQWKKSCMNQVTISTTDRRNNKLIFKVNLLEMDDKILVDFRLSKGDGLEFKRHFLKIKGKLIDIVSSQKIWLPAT
Kind of test: Enzymatic radiometric [Km ATP] KinaseProfiler LeadHunter assay, kinase: CHK1, catalogue number: 14-346KP The assay has been performed by Eurofins Discovery. The settings on record: ATP concentration 90.0 uM, Test compound concentration 10.0 uM.

In test [2] the target is T2, Serine/threonine-protein kinase 17A (Homo sapiens) (UniProt Q9UEE5).
T2 sequence (whole entry): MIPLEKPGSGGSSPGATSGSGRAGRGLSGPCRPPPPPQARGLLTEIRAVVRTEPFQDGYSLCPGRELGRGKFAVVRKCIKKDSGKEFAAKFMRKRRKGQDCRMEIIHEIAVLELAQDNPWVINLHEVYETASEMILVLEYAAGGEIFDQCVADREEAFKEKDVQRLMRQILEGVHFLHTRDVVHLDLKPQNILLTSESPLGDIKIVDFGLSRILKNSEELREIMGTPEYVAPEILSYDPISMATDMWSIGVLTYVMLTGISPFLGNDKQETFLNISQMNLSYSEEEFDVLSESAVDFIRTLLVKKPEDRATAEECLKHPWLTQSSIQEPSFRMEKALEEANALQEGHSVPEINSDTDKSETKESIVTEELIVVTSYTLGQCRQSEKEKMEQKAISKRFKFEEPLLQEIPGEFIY
Kind of test: Enzymatic radiometric [Km ATP] KinaseProfiler LeadHunter assay, kinase: DRAK1, catalogue number: 14-668KP The assay has been performed by Eurofins Discovery. The settings on record: ATP concentration 10.0 uM, Test compound concentration 10.0 uM.

Test [3] concerns the target MAP kinase-activated protein kinase 2 (Homo sapiens) (UniProt P49137). Briefly: Enzymatic radiometric [Km ATP] KinaseProfiler LeadHunter assay, kinase: MAPKAP-K2, catalogue number: 14-337KP The assay has been performed by Eurofins Discovery. The settings on record: ATP concentration 90.0 uM, Test compound concentration 10.0 uM.
In test [4] the target is Dual specificity mitogen-activated protein kinase kinase 1 (Homo sapiens) (UniProt Q02750). Briefly: Enzymatic radiometric [Km ATP] KinaseProfiler LeadHunter assay, kinase: MEK1, catalogue number: 14-429KP The assay has been performed by Eurofins Discovery. Conditions: ATP concentration 10.0 uM, Test compound concentration 10.0 uM.
Dual specificity mitogen-activated protein kinase kinase 1 (Homo sapiens), sequence (Q02750 whole entry): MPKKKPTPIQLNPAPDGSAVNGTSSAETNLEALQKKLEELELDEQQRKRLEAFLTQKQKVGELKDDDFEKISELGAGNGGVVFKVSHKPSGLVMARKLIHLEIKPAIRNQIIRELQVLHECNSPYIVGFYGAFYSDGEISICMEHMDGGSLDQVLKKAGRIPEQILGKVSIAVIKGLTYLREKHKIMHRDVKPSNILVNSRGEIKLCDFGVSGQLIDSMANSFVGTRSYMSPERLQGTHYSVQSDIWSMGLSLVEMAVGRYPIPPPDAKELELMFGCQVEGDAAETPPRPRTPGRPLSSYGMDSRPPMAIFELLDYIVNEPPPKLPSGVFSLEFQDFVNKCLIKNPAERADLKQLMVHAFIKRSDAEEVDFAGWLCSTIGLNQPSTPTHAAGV
The target of test [5] is MAP kinase-interacting serine/threonine-protein kinase 2 (Homo sapiens) (UniProt Q9HBH9). Briefly: Enzymatic radiometric [Km ATP] KinaseProfiler LeadHunter assay, kinase: Mnk2, catalogue number: 14-664KP The assay has been performed by Eurofins Discovery. The settings on record: ATP concentration 120.0 uM, Test compound concentration 10.0 uM.
MAP kinase-interacting serine/threonine-protein kinase 2 (Homo sapiens), sequence (Q9HBH9 whole entry, looked up): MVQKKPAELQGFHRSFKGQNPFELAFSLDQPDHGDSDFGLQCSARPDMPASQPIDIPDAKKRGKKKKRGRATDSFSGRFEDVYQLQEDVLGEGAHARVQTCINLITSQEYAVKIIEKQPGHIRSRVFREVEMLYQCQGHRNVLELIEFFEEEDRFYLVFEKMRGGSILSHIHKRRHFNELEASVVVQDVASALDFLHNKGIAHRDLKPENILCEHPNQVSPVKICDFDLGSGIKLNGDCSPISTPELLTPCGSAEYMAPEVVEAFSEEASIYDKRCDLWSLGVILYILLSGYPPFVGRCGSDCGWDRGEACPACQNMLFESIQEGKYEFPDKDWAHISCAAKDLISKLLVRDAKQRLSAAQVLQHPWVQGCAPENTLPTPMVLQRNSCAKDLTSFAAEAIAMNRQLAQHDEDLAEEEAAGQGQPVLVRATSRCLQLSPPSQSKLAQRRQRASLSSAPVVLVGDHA
For test [6], the target named is T3, Serine/threonine-protein kinase Nek2 (Homo sapiens) (UniProt P51955).
T3 sequence (whole entry): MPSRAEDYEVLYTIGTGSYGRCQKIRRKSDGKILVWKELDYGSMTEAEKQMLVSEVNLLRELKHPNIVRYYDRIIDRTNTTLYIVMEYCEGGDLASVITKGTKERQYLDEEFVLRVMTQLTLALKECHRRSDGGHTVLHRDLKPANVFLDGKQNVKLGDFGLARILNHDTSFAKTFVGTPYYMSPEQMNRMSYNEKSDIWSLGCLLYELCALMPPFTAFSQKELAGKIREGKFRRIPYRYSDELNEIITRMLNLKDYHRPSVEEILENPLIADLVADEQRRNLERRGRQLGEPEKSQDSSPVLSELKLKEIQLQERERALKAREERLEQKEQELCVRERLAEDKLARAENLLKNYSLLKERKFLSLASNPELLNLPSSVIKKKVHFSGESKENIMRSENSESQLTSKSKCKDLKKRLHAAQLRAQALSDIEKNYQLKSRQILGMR
Kind of test: Enzymatic radiometric [Km ATP] KinaseProfiler LeadHunter assay, kinase: NEK2, catalogue number: 14-545KP The assay has been performed by Eurofins Discovery. Conditions: ATP concentration 120.0 uM, Test compound concentration 10.0 uM.

The target of test [7] is Mitogen-activated protein kinase 14 (Homo sapiens) (UniProt Q16539). Briefly: Enzymatic radiometric [Km ATP] KinaseProfiler LeadHunter assay, kinase: SAPK2a, catalogue number: 14-251KP The assay has been performed by Eurofins Discovery. Conditions: ATP concentration 90.0 uM, Test compound concentration 10.0 uM.
Mitogen-activated protein kinase 14 (Homo sapiens), sequence (Q16539 whole entry): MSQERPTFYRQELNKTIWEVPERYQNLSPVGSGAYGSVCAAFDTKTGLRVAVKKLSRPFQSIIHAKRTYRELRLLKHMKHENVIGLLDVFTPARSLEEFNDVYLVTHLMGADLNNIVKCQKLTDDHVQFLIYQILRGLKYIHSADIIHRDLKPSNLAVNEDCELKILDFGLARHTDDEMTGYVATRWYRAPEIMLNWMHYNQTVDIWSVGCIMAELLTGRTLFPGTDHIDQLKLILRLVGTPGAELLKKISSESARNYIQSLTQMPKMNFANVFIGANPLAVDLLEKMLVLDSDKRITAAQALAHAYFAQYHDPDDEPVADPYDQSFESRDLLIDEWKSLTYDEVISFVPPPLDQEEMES
The target in test [8] is PI3K p110 beta/p85 alpha (Homo sapiens) (UniProt P27986+P42338). Briefly: Enzymatic radiometric [Km ATP] KinaseProfiler LeadHunter assay, kinase: PI3 Kinase (p110-beta/p85-alpha), catalogue number: 14-603KP The assay has been performed by Eurofins Discovery. Conditions: ATP concentration 200.0 uM, Test compound concentration 10.0 uM. It is filed as protein-complex assay.
PI3K p110 beta/p85 alpha (Homo sapiens), sequence (P27986 2-724 limits assumed): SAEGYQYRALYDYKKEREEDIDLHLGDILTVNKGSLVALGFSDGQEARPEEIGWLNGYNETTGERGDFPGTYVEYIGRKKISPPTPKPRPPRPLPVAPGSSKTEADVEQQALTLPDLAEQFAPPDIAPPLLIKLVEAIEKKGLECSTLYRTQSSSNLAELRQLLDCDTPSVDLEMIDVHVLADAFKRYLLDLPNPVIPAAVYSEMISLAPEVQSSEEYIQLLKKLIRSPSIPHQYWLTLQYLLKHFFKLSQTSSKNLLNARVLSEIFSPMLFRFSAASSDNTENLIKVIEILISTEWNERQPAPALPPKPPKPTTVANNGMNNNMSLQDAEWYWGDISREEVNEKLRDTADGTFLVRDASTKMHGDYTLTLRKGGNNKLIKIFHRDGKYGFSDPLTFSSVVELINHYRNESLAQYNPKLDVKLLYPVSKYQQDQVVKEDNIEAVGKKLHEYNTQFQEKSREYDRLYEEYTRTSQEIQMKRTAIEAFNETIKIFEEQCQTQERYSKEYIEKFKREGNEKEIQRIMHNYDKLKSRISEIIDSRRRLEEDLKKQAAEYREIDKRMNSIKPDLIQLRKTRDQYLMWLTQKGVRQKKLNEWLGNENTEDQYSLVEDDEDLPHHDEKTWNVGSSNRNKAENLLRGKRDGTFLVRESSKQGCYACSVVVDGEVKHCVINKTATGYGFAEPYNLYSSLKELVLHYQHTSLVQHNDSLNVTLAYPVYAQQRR
PI3K p110 beta/p85 alpha (Homo sapiens), sequence (P42338 whole entry partner): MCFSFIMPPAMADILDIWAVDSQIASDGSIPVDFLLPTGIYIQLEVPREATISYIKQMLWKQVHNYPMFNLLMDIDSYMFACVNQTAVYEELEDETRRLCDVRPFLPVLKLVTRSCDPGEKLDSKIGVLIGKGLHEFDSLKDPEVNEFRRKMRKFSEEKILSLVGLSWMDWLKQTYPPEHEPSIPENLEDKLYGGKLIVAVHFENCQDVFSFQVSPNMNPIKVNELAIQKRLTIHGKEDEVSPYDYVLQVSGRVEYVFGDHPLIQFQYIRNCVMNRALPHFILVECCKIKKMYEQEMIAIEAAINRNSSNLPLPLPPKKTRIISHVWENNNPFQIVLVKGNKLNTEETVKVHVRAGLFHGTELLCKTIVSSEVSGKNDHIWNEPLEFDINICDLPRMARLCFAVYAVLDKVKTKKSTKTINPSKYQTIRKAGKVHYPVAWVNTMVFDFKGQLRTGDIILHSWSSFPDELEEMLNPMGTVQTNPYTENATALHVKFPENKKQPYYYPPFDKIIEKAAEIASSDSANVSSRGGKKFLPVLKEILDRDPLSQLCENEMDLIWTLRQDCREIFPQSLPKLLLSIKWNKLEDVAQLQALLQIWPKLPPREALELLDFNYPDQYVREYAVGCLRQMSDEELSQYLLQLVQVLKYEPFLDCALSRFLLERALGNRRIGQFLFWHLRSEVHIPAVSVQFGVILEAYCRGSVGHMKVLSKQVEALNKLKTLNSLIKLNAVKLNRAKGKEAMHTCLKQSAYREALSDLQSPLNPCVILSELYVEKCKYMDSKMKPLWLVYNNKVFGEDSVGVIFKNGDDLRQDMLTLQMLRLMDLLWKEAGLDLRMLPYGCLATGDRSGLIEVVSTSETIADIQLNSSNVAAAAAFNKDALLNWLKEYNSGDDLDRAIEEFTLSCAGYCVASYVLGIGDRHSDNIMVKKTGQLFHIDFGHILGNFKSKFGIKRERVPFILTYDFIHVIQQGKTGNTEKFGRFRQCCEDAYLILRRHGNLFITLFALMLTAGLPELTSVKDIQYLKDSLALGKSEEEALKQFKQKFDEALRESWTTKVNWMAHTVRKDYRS

The structures appear in SMILES notation. Where “and” joins values, the source holds several entries; their conditions need not be identical. Identical values can stand only once.

This is an account of results in ChEMBL document CHEMBL5442741, “ASAP - In vitro kinase profile” (2024).

MAP kinase-activated protein kinase 2 (Homo sapiens), sequence (P49137 whole entry, looked up): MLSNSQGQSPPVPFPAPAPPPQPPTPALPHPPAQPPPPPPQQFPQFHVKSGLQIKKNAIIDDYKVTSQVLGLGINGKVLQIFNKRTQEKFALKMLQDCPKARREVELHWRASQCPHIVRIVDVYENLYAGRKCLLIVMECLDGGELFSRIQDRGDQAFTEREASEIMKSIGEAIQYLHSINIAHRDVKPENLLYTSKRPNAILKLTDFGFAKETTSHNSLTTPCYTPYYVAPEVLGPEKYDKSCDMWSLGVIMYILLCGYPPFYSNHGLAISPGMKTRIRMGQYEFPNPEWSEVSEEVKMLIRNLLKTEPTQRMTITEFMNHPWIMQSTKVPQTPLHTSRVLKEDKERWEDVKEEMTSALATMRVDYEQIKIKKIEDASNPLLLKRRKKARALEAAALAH

Take `CC(C)[C@H](Nc1ncnc2[nH]ccc12)c1ccc2c(c1)S(=O)(=O)CCC2`: the Activity in test [1] was 110%; in test [2], 117%; in test [3], 106%; in test [4], 94%; in test [5], 98%; in test [6] it was 109%. Besides, the Activity is 107% in test [7] and 100% in test [8].
In the case of `Cc1nn(C)cc1-c1cc2c(N[C@H](c3ccc4c(c3)S(=O)(=O)CCC4)C(C)C)ncnc2[nH]1`, the Activity in test [1] worked out at 102%; in test [2], 111%; in test [3], 110%; in test [4], 99%; in test [5], 99%; in test [6] it was 98%. For the same compound, the figures for the Activity in test [7] and in test [8] were 98% and 105%, respectively.
In the case of `CC(C)[C@H](Nc1ncnc2[nH]c(-c3cnn(C)c3C#N)cc12)c1ccc2c(n1)OCCO2`, the Activity in test [1] was 119%; in test [2] it was 105%; in test [3], 115%; in test [4], 97%; in test [5] it was 95%; in test [6], 105%. Also, the values for the Activity in test [7] and in test [8] were 99% and 86%, respectively.
Turning to `CC(C)[C@@H](Nc1ncnc2[nH]ccc12)c1ccc2c(c1)S(=O)(=O)CCC2`, the Activity came to 84% in test [1]; 96% in test [2]; 105% in test [3]; 97% in test [4]; 89% in test [5]; 118% in test [6]. Further, the Activity in test [7] amounted to 108%; in test [8], 101%.
As to `CC(C)[C@@H](Nc1ncnc2[nH]c(-c3cnn(C)c3C#N)cc12)c1ccc2c(n1)OCCO2`, the Activity in test [1] is 108% and 120%; in test [2], 101% and 108%; in test [3] it was 98% and 114%; in test [4], 99% and 103%; in test [5] it was 77% and 83%; in test [6], 94% and 76%. Also, the Activity is 103% and 101% in test [7]; 92% and 84% in test [8].
Turning to `C[C@H](C(=O)O)[C@@H](NC(=O)c1ncnc2[nH]ccc12)c1ccc(Br)cc1`, the Activity came to 99% in test [1]; 98% in test [2]; 98% in test [3]; 89% in test [4]; 110% in test [5]; 101% in test [6]. Moreover, the Activity in test [7] turned out to be 103%; in test [8], 97%.
Turning to `CNC(=O)Cn1cc(-c2cc3c(N[C@@H](c4ccc5c(c4)S(=O)(=O)CCC5)C(C)C)ncnc3[nH]2)cn1`, the Activity in test [1] was found to be 107%; in test [2] it was 111%; in test [3], 111%; in test [4] it was 97%; in test [5], 94%; in test [6], 114%. Also, the figures for the Activity in test [7] and in test [8] were 103% and 100%, respectively.
Take `COc1ccc([C@@H](Cc2nnn[nH]2)NC(=O)c2ncnc3[nH]ccc23)cc1`: the Activity in test [1] stood at 95%; in test [2] it was 111%; in test [3] it was 92%; in test [4], 92%; in test [5] it was 84%; in test [6], 100%. Moreover, the Activity in test [7] came to 100%; in test [8], 102%.
For the compound `CC(C)[C@@H](Nc1ncnc2[nH]c(C(=O)N[C@@H]3CCN(C)C3)cc12)c1ccc2c(c1)S(=O)(=O)CCC2`, the Activity came to 118% in test [1]; 105% in test [2]; 108% in test [3]; 107% in test [4]; 99% in test [5]; 118% in test [6]. The Activity was determined as 97% in test [7] and 99% in test [8].
In the case of `Cn1ncc(-c2cc3c(N[C@@H](c4ccc5c(n4)OCCO5)C(C)(C)C)ncnc3[nH]2)c1C#N`, the Activity in test [1] came to 125%; in test [2], 108%; in test [3], 110%; in test [4] it was 98%; in test [5], 100%; in test [6], 104%. The Activity in test [7] turned out to be 106%; in test [8] it was 91%.
`COc1ccc([C@H](Cc2nnn[nH]2)NC(=O)c2ncnc3[nH]ccc23)cc1`: the Activity came to 110% in test [1]; 111% in test [2]; 102% in test [3]; 100% in test [4]; 115% in test [5]; 106% in test [6]. Besides, the Activity amounted to 103% in test [7] and 97% in test [8].
For `CNCc1cc(-c2cc3c(N[C@@H](c4ccc5c(c4)S(=O)(=O)CCC5)C(C)C)ncnc3[nH]2)co1`, the Activity in test [1] turned out to be 111%; in test [2], 86%; in test [3], 106%; in test [4], 97%; in test [5], 94%; in test [6], 105%. The Activity in test [7] came out at 97%; in test [8] it was 92%.
